Article PMC4421842 (Nature Communications, 2015)

Experiments:
[1] = test system: E. faecalis; assay: microbe, parasite or virus in culture; assay type: cell-based; conditions: E. faecalis, gyrA Ser83Ile
[2] = test system: E. faecium; assay: microbe, parasite or virus in culture; assay type: cell-based; conditions: E. faecium, gyrA Ser83Ile, parC Ser80Ile

Measured: MIC

Cc1cc(=O)n(C)c2c3c4c(cc12)c(C)cc(=O)n4CO3 [DNM, deoxynybomycin]
0.25 µg/mL: [1]; C21667, parC Ser80Ile | [1]; C28535, parC Ser80Ile | [1]; S234, parC Ser80Ile Glu84Asp | [2]; C27569 | [2]; D1 | [2]; S51 | [2]; S122 | [2]; SL152

CCn1c(=O)cc(C)c2cc3c(C)cc(=O)n4c3c(c21)OC4 [DNM-2]
0.25 µg/mL: [1]; C28535, parC Ser80Ile | [1]; S234, parC Ser80Ile Glu84Asp
